Results reported in US10233173B2, “Substituted 1,2,3-triazoles as NR2B-selective NMDA modulators” (JANSSEN PHARMACEUTICA NV, priority 2016, dated 2019).

Biological target: human GluN1/GluN2B NMDA receptors (Homo sapiens, UniProt Q05586+Q13224)
Experiment: Cell-based calcium flux (FLIPR) assay on cloned human NR1/NR2B ion channels expressed in mammalian cells
Settings: standard assay
How it was run: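 Calcium influx followed by FLIPR fluorescence after 5 min compound exposure and a further 5 min co-agonist challenge: 10 μM glycine with glutamate at ~EC80 (standard) or EC40 (HTS).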

[1] = human GluN1/GluN2B, calcium flux (FLIPR), glutamate ~EC80
[2] = glutamate at ~EC80, FLIPR calcium flux

Sequence of human GluN1/GluN2B NMDA receptors (Q13224 27-1484, other chains not shown): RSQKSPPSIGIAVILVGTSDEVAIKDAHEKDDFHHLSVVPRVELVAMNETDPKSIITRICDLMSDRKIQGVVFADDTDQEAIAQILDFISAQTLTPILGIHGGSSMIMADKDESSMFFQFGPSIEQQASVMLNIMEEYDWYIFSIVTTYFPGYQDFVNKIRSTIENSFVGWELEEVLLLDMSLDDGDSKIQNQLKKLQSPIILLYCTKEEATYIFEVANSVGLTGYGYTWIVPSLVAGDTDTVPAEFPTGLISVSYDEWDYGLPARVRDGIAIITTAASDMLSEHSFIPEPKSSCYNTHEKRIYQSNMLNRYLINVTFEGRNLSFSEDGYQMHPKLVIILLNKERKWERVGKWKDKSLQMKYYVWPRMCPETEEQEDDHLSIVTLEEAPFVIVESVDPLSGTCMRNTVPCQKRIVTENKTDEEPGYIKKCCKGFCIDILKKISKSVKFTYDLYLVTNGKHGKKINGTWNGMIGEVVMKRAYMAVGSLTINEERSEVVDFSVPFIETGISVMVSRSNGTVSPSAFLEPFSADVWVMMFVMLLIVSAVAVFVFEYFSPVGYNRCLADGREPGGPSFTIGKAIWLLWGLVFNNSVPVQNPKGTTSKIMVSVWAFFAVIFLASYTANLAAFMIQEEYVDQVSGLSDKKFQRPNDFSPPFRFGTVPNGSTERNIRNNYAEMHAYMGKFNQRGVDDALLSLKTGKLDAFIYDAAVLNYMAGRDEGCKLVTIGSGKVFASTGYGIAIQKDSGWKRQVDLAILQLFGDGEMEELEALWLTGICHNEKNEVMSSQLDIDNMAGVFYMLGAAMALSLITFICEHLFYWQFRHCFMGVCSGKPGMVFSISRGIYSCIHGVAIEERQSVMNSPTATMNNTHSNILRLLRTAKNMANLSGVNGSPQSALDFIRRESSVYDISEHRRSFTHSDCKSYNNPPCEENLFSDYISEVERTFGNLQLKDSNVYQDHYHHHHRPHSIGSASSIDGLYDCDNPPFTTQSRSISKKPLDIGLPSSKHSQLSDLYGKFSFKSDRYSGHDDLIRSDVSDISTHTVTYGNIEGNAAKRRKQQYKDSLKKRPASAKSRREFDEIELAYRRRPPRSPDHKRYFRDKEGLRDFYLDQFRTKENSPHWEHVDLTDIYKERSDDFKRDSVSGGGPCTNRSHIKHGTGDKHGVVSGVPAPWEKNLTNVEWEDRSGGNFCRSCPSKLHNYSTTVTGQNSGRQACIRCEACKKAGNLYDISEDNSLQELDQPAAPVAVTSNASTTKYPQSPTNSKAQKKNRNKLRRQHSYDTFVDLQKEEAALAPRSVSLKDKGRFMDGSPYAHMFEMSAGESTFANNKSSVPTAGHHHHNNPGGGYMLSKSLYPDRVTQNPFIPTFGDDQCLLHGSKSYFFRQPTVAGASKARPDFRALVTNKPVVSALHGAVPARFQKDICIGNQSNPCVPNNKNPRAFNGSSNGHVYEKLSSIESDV

| SMILES | IC50 [1] [µM] | IC50 [2] [µM] |
| --- | --- | --- |
| Cc1ccnc(OCc2cn(-c3ccc(F)c(OC(F)F)c3)nn2)c1 [Example 116, 2-[[1-[3-(Difluoromethoxy)-4-fluoro-phenyl]triazol-4-yl]methoxy]-4-methyl-pyridine] | 0.102 |  |
| CC(F)(F)c1cc(-n2cc(COc3ncc(C4CC4)cn3)nn2)ccc1F [Example 587, 5-Cyclopropyl-2-[[1-[3-(1,1-difluoroethyl)-4-fluoro-phenyl]triazol-4-yl]methoxy]pyrimidine] |  | 0.041 |
| CC(=O)c1cnc(OCc2cn(-c3cccc(C(C)(F)F)c3)nn2)nc1 [Example 309, 1-[2-[[1-[3-(1,1-Difluoroethyl)phenyl]triazol-4-yl]methoxy]pyrimidin-5-yl]ethanone] | 0.01 |  |
| FC(F)Oc1cc(-n2cc(CNc3ccccn3)nn2)ccc1Cl [Example 2, N-((1-(4-Chloro-3-(difluoromethoxy)phenyl)-1H-1,2,3-triazol-4-yl)methyl)pyridin-2-amine] | 0.213 |  |
| CC(C)c1cnc(OCc2cn(-c3ccc(F)c(C(F)(F)F)c3)nn2)nc1 [Example 75, 2-[[1-[4-Fluoro-3-(trifluoromethyl)phenyl]triazol-4-yl]methoxy]-5-isopropyl-pyrimidine] | 0.026 |  |
| FC(F)(F)Oc1ccc(-n2cc(COc3ncccn3)nn2)cc1 [Example 335, 2-[[1-[4-(Trifluoromethoxy)phenyl]triazol-4-yl]methoxy]pyrimidine] | 3.12 |  |
| COc1cc(-n2cc(COc3ncccn3)nn2)ccc1F [Example 20, 2-[[1-(4-Fluoro-3-methoxy-phenyl)triazol-4-yl]methoxy]pyrimidine] | 1 |  |
| Cc1nc(OCc2cn(-c3cccc(C(F)F)c3)nn2)ncc1Cl [Example 279, 5-Chloro-2-[[1-[3-(difluoromethyl)phenyl]triazol-4-yl]methoxy]-4-methyl-pyrimidine] | 0.003 |  |
| Cc1cnc(OCc2cn(-c3cccc(C)c3)nn2)nc1 [Example 243, 5-Methyl-2-[[1-(m-tolyl)triazol-4-yl]methoxy]pyrimidine] | 0.014 |  |
| CC(F)(F)c1cc(-n2cc(COc3ncc(C(F)(F)F)cn3)nn2)ccc1Cl [Example 537, 2-[[1-[4-Chloro-3-(1,1-difluoroethyl)phenyl]triazol-4-yl]methoxy]-5-(trifluoromethyl)pyrimidine] |  | 0.016 |
| Cc1cnc(OCc2cn(-c3cccc(C(F)F)c3)nn2)nc1N(C)C [Example 281, 2-[[1-[3-(Difluoromethyl)phenyl]triazol-4-yl]methoxy]-N,N,5-trimethyl-pyrimidin-4-amine] | 0.13 |  |
| Nc1ccnc(OCc2cn(-c3ccc(F)c(C(F)F)c3)nn2)n1 [Example 412, 2-[[1-[3-(Difluoromethyl)-4-fluoro-phenyl]triazol-4-yl]methoxy]pyrimidin-4-amine] |  | 0.124 |
| CNc1ccnc(OCc2cn(-c3cccc(OC(F)(F)F)c3)nn2)n1 [Example 352, N-Methyl-2-[[1-[3-(trifluoromethoxy)phenyl]triazol-4-yl]methoxy]pyrimidin-4-amine] | 0.068 |  |
| COCc1ccnc(OCc2cn(-c3cccc(OC(F)(F)F)c3)nn2)n1 [Example 346, 4-(Methoxymethyl)-2-[[1-[3-(trifluoromethoxy)phenyl]triazol-4-yl]methoxy]pyrimidine] | 0.202 |  |
| OCc1cnc(OCc2cn(-c3ccc(F)c(Br)c3)nn2)nc1 [Example 616, [2-[[1-(3-Bromo-4-fluoro-phenyl)triazol-4-yl]methoxy]pyrimidin-5-yl]methanol] |  | 0.03 |
| CC(F)(F)c1cc(-n2cc(COc3ncc(C(F)(F)F)cn3)nn2)ccc1F [Example 71, 2-[[1-[3-(1,1-Difluoroethyl)-4-fluoro-phenyl]triazol-4-yl]methoxy]-5-(trifluoromethyl)pyrimidine] | 0.04 |  |
| Cc1cnc(OCc2cn(-c3cccc(OC(F)(F)F)c3)nn2)nc1 [Example 342, 5-Methyl-2-[[1-[3-(trifluoromethoxy)phenyl]triazol-4-yl]methoxy]pyrimidine] | 0.017 |  |
| CC(F)(F)c1cc(-n2cc(COc3ncc(C#N)cn3)nn2)ccc1F [Example 583, 2-[[1-[3-(1,1-Difluoroethyl)-4-fluoro-phenyl]triazol-4-yl]methoxy]pyrimidine-5-carbonitrile] |  | 0.067 |
| CC(F)(F)c1cc(-n2cc(COc3ncc(C(F)F)cn3)nn2)ccc1F [Example 562, 2-[[1-[3-(1,1-Difluoroethyl)-4-fluoro-phenyl]triazol-4-yl]methoxy]-5-(difluoromethyl)pyrimidine] |  | 0.014 |
| CN(C)C(=O)c1ccnc(OCc2cn(-c3ccc(F)c(C(F)F)c3)nn2)n1 [Example 410, 2-[[1-[3-(Difluoromethyl)-4-fluoro-phenyl]triazol-4-yl]methoxy]-N,N-dimethyl-pyrimidine-4-carboxamide] |  | > 2.99 |
| Fc1ccc(-n2cc(COc3ncc(N4CC(F)C4)cn3)nn2)cc1C(F)(F)F [Example 455, 2-((1-(4-Fluoro-3-(trifluoromethyl)phenyl)-1H-1,2,3-triazol-4-yl)methoxy)-5-(3-fluoroazetidin-1-yl)pyrimidine] |  | 0.034 |

| SMILES | IC50 [1] [µM] | IC50 [2] [µM] |
| --- | --- | --- |
| FC(F)c1cc(-n2cc(CNc3ncc(Cl)cn3)nn2)ccc1Cl [Example 200, 5-Chloro-N-[[1-[4-chloro-3-(difluoromethyl)phenyl]triazol-4-yl]methyl]pyrimidin-2-amine] | 0.131 |  |
| Cc1ccc(-n2cc(COc3ncc(C)c(N)n3)nn2)cc1OC(F)F [Example 521, 2-[[1-[3-(Difluoromethoxy)-4-methyl-phenyl]triazol-4-yl]methoxy]-5-methyl-pyrimidin-4-amine] |  | 0.021 |
| CC(F)(F)c1cc(-n2cc(COc3ncc(CO)cn3)nn2)ccc1F [Example 571, [2-[[1-[3-(1,1-difluoroethyl)-4-fluoro-phenyl]triazol-4-yl]methoxy]pyrimidin-5-yl]methanol] |  | 0.021 |
| CC(F)(F)c1cc(-n2cc(COc3nccc(C(F)(F)F)n3)nn2)ccc1Cl [Example 538, 2-[[1-[4-Chloro-3-(1,1-difluoroethyl)phenyl]triazol-4-yl]methoxy]-4-(trifluoromethyl)pyrimidine] |  | 0.318 |
| Cc1ccc(-n2cc(COc3ncc(F)cn3)nn2)cc1 [Example 257, 5-Fluoro-2-[[1-(p-tolyl)triazol-4-yl]methoxy]pyrimidine] | 2.69 |  |
| Cc1ccnc(OCc2cn(-c3cccc(C(F)F)c3)nn2)n1 [Example 268, 2-[[1-[3-(Difluoromethyl)phenyl]triazol-4-yl]methoxy]-4-methyl-pyrimidine] | 0.134 |  |
| CCOCc1ccnc(OCc2cn(-c3ccc(F)c(OC(F)F)c3)nn2)n1 [Example 711, 2-((1-(3-(Difluoromethoxy)-4-fluorophenyl)-1H-1,2,3-triazol-4-yl)methoxy)-4-(ethoxymethyl)pyrimidine] |  | 0.043 |
| COc1cnc(OCc2cn(-c3ccc(F)c(CCCF)c3)nn2)nc1 [Example 194, 2-[[1-[4-Fluoro-3-(3-fluoropropyl)phenyl]triazol-4-yl]methoxy]-5-methoxy-pyrimidine] | 0.061 |  |
| CC(N)c1ccnc(OCc2cn(-c3ccc(F)c(OC(F)F)c3)nn2)n1 (racemic) [Example 163, (R/S) 1-[2-[[1-[3-(Difluoromethoxy)-4-fluoro-phenyl]triazol-4-yl]methoxy]pyrimidin-4-yl]ethanamine] | 1.4 |  |
| Fc1cnc(OCc2cn(-c3ccc(F)c(OC(F)F)c3)nn2)nc1 [Example 492, 2-[[1-[3-(Difluoromethoxy)-4-fluoro-phenyl]triazol-4-yl]methoxy]-5-fluoro-pyrimidine] |  | 0.026 |
| COCc1ccnc(OCc2cn(-c3ccc(F)c(Cl)c3)nn2)n1 [Example 622, 2-[[1-(3-Chloro-4-fluoro-phenyl)triazol-4-yl]methoxy]-4-(methoxymethyl)pyrimidine] |  | 0.066 |
| Cc1cccc(OCc2cn(-c3ccc(F)c(C(F)(F)F)c3)nn2)n1 [Example 430, 2-[[1-[4-Fluoro-3-(trifluoromethyl)phenyl]triazol-4-yl]methoxy]-6-methyl-pyridine] |  | 0.11 |
| FC(F)Oc1cc(-n2cc(COc3ncccn3)nn2)ccc1Cl [Example 10, 2-[[1-[4-Chloro-3-(difluoromethoxy)phenyl]triazol-4-yl]methoxy]pyrimidine] | 0.01 |  |
| Cc1ccccc1-n1cc(COc2ncccn2)nn1 [Example 236, 2-[[1-(o-Tolyl)triazol-4-yl]methoxy]pyrimidine] | > 10 |  |
| CC(F)(F)c1cc(-n2cc(COc3nccc(-c4cn[nH]c4)n3)nn2)ccc1F [Example 186, 2-[[1-[3-(1,1-Difluoroethyl)-4-fluoro-phenyl]triazol-4-yl]methoxy]-4-(1H-pyrazol-4-yl)pyrimidine] | 1.36 |  |
| Cc1nc(OCc2cn(-c3cccc(C(C)(F)F)c3)nn2)ncc1Cl [Example 312, 5-Chloro-2-[[1-[3-(1,1-difluoroethyl)phenyl]triazol-4-yl]methoxy]-4-methyl-pyrimidine] | 0.004 |  |
| Cc1cnc(OCc2cn(-c3cccc(F)c3)nn2)nc1 [Example 232, 2-[[1-(3-Fluorophenyl)triazol-4-yl]methoxy]-5-methyl-pyrimidine] | 0.205 |  |
| CCc1cnc(OCc2cn(-c3ccc(F)cc3C)nn2)nc1 [Example 491, 5-Ethyl-2-[[1-(4-fluoro-2-methyl-phenyl)triazol-4-yl]methoxy]pyrimidine] |  | 1.17 |
| CCc1cnc(OCc2cn(-c3cccc(OC(F)F)c3)nn2)nc1 [Example 328, 2-[[1-[3-(Difluoromethoxy)phenyl]triazol-4-yl]methoxy]-5-ethyl-pyrimidine] | 0.029 |  |
| Cc1cc(-n2cc(COc3ncccn3)nn2)ccc1F [Example 473, 2-[[1-(4-Fluoro-3-methyl-phenyl)triazol-4-yl]methoxy]pyrimidine] |  | 0.072 |
| CCNc1cnc(OCc2cn(-c3ccc(F)c(C(F)(F)F)c3)nn2)nc1C [Example 458, 2-((1-(3-(Trifluoromethyl)-4-fluorophenyl)-1H-1,2,3-triazol-4-yl)methoxy)-N-ethyl-4-methylpyrimidin-5-amine] |  | 0.439 |
